Values of other authors in publication PMC7744997 (Clinical Infectious Diseases: An Official Publication of …, 2020).

Tested on: RSV
Conditions: cited from earlier work

SMILES | Outcome on viral load endpoints in clinical studies
Cc1cn2nc([C@@H]3CCCCN3C(=O)c3cc(Cl)ccc3NS(C)(=O)=O)cc2nc1N1CC[C@H](N)C1 [presatovir] | failure to meet viral load endpoints
Cc1ccc([C@]23Cn4cccc4C(=O)N2CCN3C(=O)c2conc2C)cn1 [BTA-C585] | failure to meet viral load endpoints
